The record followed here is US9822125B2, “Benzopyran compounds as melanogenesis modifiers and uses thereof” (NEW YORK UNIVERSITY, priority 2011, dated 2017).

The subject of the test is melan-a cells. Briefly: Melanin assay in cultured murine melanocytes (melan-a). Type of test: cell-based. The note with it: 72 hours of incubation. Here is the method:
The Spectrum Collection library consisting of 2000 drug compounds or natural products represents a source for the identification of compounds useful in the present invention. The library may be screened to identify novel pigmentation inhibitors in cultured murine melanocytes (melan-a). Compounds are dissolved in dimethylsulfoxide (DMSO) to a final concentration of 10 mM. Screening is performed with cultured melanocytes in 24-well plates followed by melanin assay (see below). A minimum change of 50% in melanin formation is established as significant for a pigmentation inhibitor. DMSO may be used as a negative control and the widely used depigmenting agent, hydroquinone, may be used as a positive control on every plate. Primary screening is performed at a final concentration of 1 μM and potential candidates from the primary screening are reconfirmed in duplicate at final concentrations of 1 and 5 μM.
Melan-a cells are plated at 5×10^4 cells per well in 1 ml of culture media in 24-well plates the day before adding the library compounds. All compounds are added at the indicated final concentrations. Cells are harvested after 72 hours of incubation, and the melanin assay is performed.
For further test and mechanism of action studies, the compounds may be purchased from Sigma, MicroSource or other known suppliers. The compounds are dissolved in dimethylsulfoxide (DMSO) to a final concentration of 10 mM, and are tested for their effect on melanin synthesis at the indicated final concentrations.
For the primary and secondary screening, cells were harvested and dissolved in 200 μl of 2N NaOH in 20% DMSO at 70° C. A 180-μl aliquot of the resulting solution was measured for absorbance at 490 nm.
Cells are harvested in extraction buffer (1% Triton X-100, 50 mM Tris, 2 mM EDTA, 150 mM NaCl, pH 7.5) containing a complete protease inhibitor cocktail (Roche). The lysates were centrifuged at 14,000 rpm for 10 minutes at 4° C. BCA protein assay kit (Pierce) was used to measure the protein concentrations of the supernatants, and bovine serum albumin was used as a standard. The remaining pellets were incubated with 100 μl ethanol-ether (1:1) for 10 minutes at room temperature. After removing the ethanol-ether, the pellets were dissolved in 200 μl of 2N NaOH in 20% DMSO at 70° C. A 180-μl aliquot of the resulting solution was measured for absorbance at 490 nm. The melanin contents were normalized to the total amount of protein.
The compounds, their structures, inhibition data expressed as % of control remaining, are set forth in FIG. 1 and are shown in Table 1, below.

Regarding `CC(C)=CCc1c2c(c3occ(-c4ccc(O)cc4)c(=O)c3c1O)C=CC(C)(C)O2` [ID 1, Osajin], the “% of control melanin remaining after treatment @ 1 μM” value is recorded as 99 % of control and the “% of control melanin remaining after treatment @ 5 μM” value is 87 % of control. Taken in the same sequence, the figures for `COc1ccc(-c2coc3c4c(c(CC=C(C)C)c(O)c3c2=O)OC(C)(C)C=C4)cc1` [ID 2, Osajin- 4′methyl ester] were 99 % of control and 70 % of control. Take `CC(C)=CCc1c2c(c3occ(-c4ccc(O)c(O)c4)c(=O)c3c1O)C=CC(C)(C)O2` [ID 3, Pomiferin]: the “% of control melanin remaining after treatment @ 1 μM” value is listed as 53 % of control. Regarding `COc1ccc(-c2coc3c4c(c(CC=C(C)C)c(O)c3c2=O)OC(C)(C)C=C4)cc1OC` [ID 4, Pomiferin-3′,4′-dimethyl ether], the “% of control melanin remaining after treatment @ 1 μM” value is reported as 80 % of control and the “% of control melanin remaining after treatment @ 5 μM” value is listed as 50 % of control. Turning to `CC(C)=CCc1c2c(c(O)c3c(=O)c(-c4ccc(O)cc4)coc13)C=CC(C)(C)O2` [ID 5, Warangalone], the “% of control melanin remaining after treatment @ 1 μM” value is 100 % of control and the “% of control melanin remaining after treatment @ 5 μM” value is 78 % of control.
